Among the test systems are ACHN; SF-295; HOP-62; SF-539; SNB-75; OVCAR-5; MCF7; M14; HT-29; OVCAR-8; SF-268; UACC-257; Hs-578T; K562; OVCAR-4; CAKI-1; OVCAR-3; SN12C; UO-31.
Common to all, as to experiment: NCI anticancer screen, dose series, 48 h

Each structure is given as a SMILES string.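 These data come from cells grown in 96-well plates and exposed to compound for 48 hours at five concentrations. GI50 = concentration required for 50% inhibition of growth.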 The source made the active and inactive calls. Rule as the data show it: active = GI50 up to about 1.1 µM and inactive = higher.

With `O=C(CC(=O)Nc1ccccc1)NNC(c1cc(/N=N/c2ccc(Br)cc2)ccc1O)P(O)O` (stereo not given), the GI50 in the test with ACHN was 2.12 µM (inactive); with SF-295, 3.64 µM (inactive); in the test with HOP-62 it was 6.79 µM (inactive); with SF-539, 2.12 µM (inactive); in the test with SNB-75, 2.32 µM (inactive); in the test on OVCAR-5, 6.92 µM (inactive). Besides, the GI50 was 1.03 µM (active) with MCF7; 0.631 µM (active) in the test with M14; > 10 µM (inactive) in the test with HT-29; 0.759 µM (active) with OVCAR-8; 0.964 µM (active) in the test with SF-268; 4.89 µM (inactive) in the test with UACC-257. In addition, the GI50 in the test on Hs-578T is > 10 µM (inactive); in the test with K562, 2.06 µM (inactive); with OVCAR-4, 1.85 µM (inactive); with CAKI-1, 3.02 µM (inactive); with OVCAR-3, 0.333 µM (active); with SN12C it was 4.04 µM (inactive). For the same compound, the GI50 with UO-31 is 2.52 µM (inactive).

Consider `COc1ccc(/C(=N\Nc2ccccn2)c2ccccn2)cc1`, for which the GI50 in the test with ACHN is < 0.01 µM (active); in the test on SF-295 it was 0.301 µM (active); in the test with HOP-62 it was 0.217 µM (active); in the test with SF-539, 0.0627 µM (active); with SNB-75, 0.414 µM (active); with OVCAR-5, 2.54 µM (inactive). The GI50 was < 0.01 µM (active) with MCF7; < 0.01 µM (active) in the test with M14; < 0.01 µM (active) with HT-29; < 0.01 µM (active) with OVCAR-8; 0.0311 µM (active) in the test on SF-268; < 0.01 µM (active) in the test on UACC-257. Further, the GI50 in the test with Hs-578T was 0.625 µM (active); in the test with K562 it was < 0.0107 µM (active); with OVCAR-4, 11.4 µM (inactive); in the test on CAKI-1, < 0.01 µM (active); in the test with OVCAR-3 it was < 0.01 µM (active); in the test on SN12C, < 0.01 µM (active). Further, the GI50 in the test on UO-31 is 0.0405 µM (active).

Turning to `O=c1c(F)cn(Cc2c(Cl)cccc2Cl)c(=O)n1Cc1c(Cl)cccc1Cl`, the GI50 in the test with ACHN was > 31.6 µM (inactive); with SF-295 it was > 31.6 µM (inactive); in the test on HOP-62, > 31.6 µM (inactive); with SF-539, > 31.6 µM (inactive); with SNB-75, 16.5 µM (inactive); in the test with OVCAR-5, > 31.6 µM (inactive). The GI50 is 24.5 µM (inactive) with MCF7; > 31.6 µM (inactive) in the test on M14; 18.3 µM (inactive) in the test with HT-29; > 31.6 µM (inactive) in the test with OVCAR-8; > 31.6 µM (inactive) in the test on SF-268; > 31.6 µM (inactive) in the test on UACC-257. Besides, the GI50 in the test on Hs-578T was > 31.6 µM (inactive); with K562, 26.9 µM (inactive); in the test with OVCAR-4, 17.1 µM (inactive); in the test on CAKI-1, > 21.5 µM (inactive); with OVCAR-3, > 31.6 µM (inactive); in the test with SN12C, > 31.6 µM (inactive). The GI50 with UO-31 was 18.1 µM (inactive).

As for `[N-]=[N+]=Nc1c(Cl)c(Cl)nc2ccccc12`, the GI50 with ACHN is 91.4 µM (inactive); in the test on SF-295, 82.8 µM (inactive); in the test on HOP-62 it was > 100 µM (inactive); in the test on SF-539, > 100 µM (inactive); in the test with SNB-75 it was 44.8 µM (inactive); in the test with OVCAR-5 it was > 100 µM (inactive). For the same compound, the GI50 with MCF7 was 54.5 µM (inactive); with M14 it was > 100 µM (inactive); in the test on HT-29 it was > 100 µM (inactive); with OVCAR-8, > 100 µM (inactive); with SF-268 it was > 100 µM (inactive); with UACC-257, > 100 µM (inactive). For the same compound, the GI50 with Hs-578T is 61.8 µM (inactive); in the test on K562, 81.3 µM (inactive); in the test on OVCAR-4, 85.7 µM (inactive); in the test with CAKI-1, 21.2 µM (inactive); in the test on OVCAR-3, 34.5 µM (inactive); in the test on SN12C it was 76 µM (inactive). In addition, the GI50 in the test on UO-31 was > 100 µM (inactive).

Turning to `CN(C)CCNCc1ccc2c(-c3ccccc3)nc3cc(Cl)c(Cl)cc3n12`, the GI50 with ACHN is 7.6 µM (inactive); with SF-295, 13.1 µM (inactive); with HOP-62, 7.33 µM (inactive); with SF-539, 7.35 µM (inactive); in the test with SNB-75 it was 7.46 µM (inactive); in the test with OVCAR-5, 10.6 µM (inactive). The GI50 was 6.19 µM (inactive) in the test with MCF7; 8.13 µM (inactive) with M14; 8.3 µM (inactive) in the test on HT-29; 11.1 µM (inactive) with OVCAR-8; 13.9 µM (inactive) in the test on SF-268; 9.4 µM (inactive) with UACC-257. For the same compound, the GI50 with Hs-578T was 17.9 µM (inactive); in the test on K562, 8.32 µM (inactive); in the test on OVCAR-4, 11.3 µM (inactive); in the test with CAKI-1, 8.51 µM (inactive); in the test with OVCAR-3, 17.5 µM (inactive); with SN12C, 9.93 µM (inactive). Besides, the GI50 in the test on UO-31 was 7.83 µM (inactive).

Consider `O=C(CSCC(=O)N/N=C\c1cccc(Br)c1)N/N=C\c1cccc(Br)c1`, for which the GI50 is 13.6 µM (inactive) in the test on ACHN; 14.9 µM (inactive) in the test on SF-295; 17.4 µM (inactive) with HOP-62; 23.6 µM (inactive) in the test on SF-539; 18.1 µM (inactive) in the test with SNB-75; 18.6 µM (inactive) in the test with OVCAR-5. The GI50 in the test with MCF7 was 33.1 µM (inactive); in the test on M14 it was 20 µM (inactive); in the test with HT-29 it was 23.1 µM (inactive); with OVCAR-8 it was 15.3 µM (inactive); with SF-268, 14.1 µM (inactive); in the test on UACC-257 it was 14.1 µM (inactive). The GI50 was 18.2 µM (inactive) in the test on Hs-578T; 18.2 µM (inactive) with K562; 20.1 µM (inactive) in the test on OVCAR-4; 17.9 µM (inactive) in the test on CAKI-1; 13.4 µM (inactive) in the test with OVCAR-3; 16.2 µM (inactive) in the test on SN12C. Besides, the GI50 in the test on UO-31 is 15.5 µM (inactive).

As to `COc1ccc2oc(S(=O)(=O)N3CC(CCl)c4ccc([N+](=O)[O-])cc43)cc2c1` (stereo not given), the GI50 in the test on ACHN was 0.179 µM (active); in the test on SF-295, 0.0374 µM (active); with HOP-62 it was 0.0381 µM (active); in the test on SF-539 it was 0.0607 µM (active); in the test with SNB-75, 0.0933 µM (active); in the test on OVCAR-5, 0.832 µM (active). Besides, the GI50 was 0.0401 µM (active) with MCF7; 0.122 µM (active) in the test with M14; 0.146 µM (active) with HT-29; 0.22 µM (active) in the test with OVCAR-8; 0.299 µM (active) in the test on SF-268; 0.073 µM (active) with UACC-257. Also, the GI50 is 0.0454 µM (active) in the test on Hs-578T; 0.0366 µM (active) in the test with K562; 6.28 µM (inactive) in the test on OVCAR-4; 0.0388 µM (active) in the test on CAKI-1; 0.108 µM (active) in the test on OVCAR-3; 0.179 µM (active) in the test on SN12C. For the same compound, the GI50 with UO-31 was 0.783 µM (active).

On to `Cc1nc(C(N)=S)sc1C(=O)CC(=O)C(=O)Nc1nc2ccccc2[nH]1`, for which the GI50 in the test with ACHN, with SF-295, with HOP-62, in the test with SF-539, in the test with SNB-75 and with OVCAR-5 was > 100 µM (inactive) throughout. Moreover, the GI50 with MCF7, in the test with M14, in the test on HT-29, in the test with OVCAR-8, in the test with SF-268 and in the test on UACC-257 was > 100 µM (inactive) throughout. For the same compound, the GI50 with Hs-578T, with K562, with OVCAR-4, in the test with CAKI-1, in the test on OVCAR-3 and with SN12C was > 100 µM (inactive) throughout. In addition, the GI50 in the test with UO-31 was > 100 µM (inactive).

For the compound `CC(=O)O[C@H]1C[C@H](O[C@H]2[C@@H](O)C[C@H](O[C@H]3[C@@H](O)C[C@H](O[C@H]4CC[C@@]5(C)[C@H](CC[C@@H]6[C@@H]5CC[C@]5(O)[C@@H](C7=CC(=O)OC7)CC[C@]65O)C4)O[C@@H]3C)O[C@@H]2C)O[C@H](C)[C@H]1O[C@@H]1O[C@H](CO)[C@@H](O)[C@H](O)[C@H]1O`, the GI50 with ACHN is 0.075 µM (active); in the test on SF-295, 0.344 µM (active); with HOP-62 it was 0.0664 µM (active); in the test on SF-539, 0.185 µM (active); in the test with SNB-75, 0.908 µM (active); in the test on OVCAR-5, 0.455 µM (active). Further, the GI50 with MCF7 was 0.52 µM (active); in the test with M14, 0.841 µM (active); with HT-29 it was 0.286 µM (active); in the test on OVCAR-8 it was 0.452 µM (active); in the test on SF-268 it was 0.358 µM (active); in the test with UACC-257, 0.597 µM (active). Moreover, the GI50 in the test with Hs-578T was 0.348 µM (active); in the test on K562, 0.337 µM (active); with OVCAR-4, 0.497 µM (active); in the test on CAKI-1, 0.132 µM (active); in the test with OVCAR-3 it was 0.349 µM (active); in the test with SN12C, 0.258 µM (active). Moreover, the GI50 in the test with UO-31 is 0.391 µM (active).

On to `CNc1cccnc1/C=N/N=C(/N)S`, for which the GI50 was 0.332 µM (active) in the test on ACHN; 2 µM (inactive) in the test with SF-295; 3.11 µM (inactive) in the test with HOP-62; 0.279 µM (active) in the test on SF-539; 0.863 µM (active) with SNB-75; 3.89 µM (inactive) in the test with OVCAR-5. Besides, the GI50 in the test on MCF7 was 0.471 µM (active); in the test on M14 it was 1.37 µM (inactive); in the test on HT-29, 2.45 µM (inactive); in the test with OVCAR-8, 0.675 µM (active); in the test with SF-268, 0.612 µM (active); in the test on UACC-257 it was > 10 µM (inactive). Further, the GI50 was > 10 µM (inactive) with Hs-578T; > 4.76 µM (inactive) in the test on K562; 4.09 µM (inactive) in the test with OVCAR-4; 3.48 µM (inactive) with CAKI-1; 2.17 µM (inactive) in the test on OVCAR-3; 1.33 µM (inactive) with SN12C. In the test with UO-31, the GI50 is 1.78 µM (inactive).

The values above are taken from ChEMBL document CHEMBL1201862, “PubChem BioAssay data set” (2004).
